Entries after “also recorded” stand apart in the source; their conditions may differ.
Tests used:
HCT-116 cell line = assay: MTT cell proliferation assay; type: cell-based
From the text: Structure Activity Relationships (SAR) studies for 1SS, […], 1RS, and […]. It has been reported that ablation of C3, C6 and C7 substituents is detrimental to activity. […] (See FIG. 4). Additional activity was also observed when C17 was left in its natural R configuration.

[1] = system: normal B lymphocytes from healthy donor; assay: Flow cytometry, % specific induced apoptosis in normal B lymphocytes; type: cell-based, human; details: 48 hours
Protocol: FIG. 20A-20C: FD-895 and PLAD induce apoptosis in CLL cells but not in normal lymphocytes with a TP53 independent activity: Primary leukemia B cells from CLL (FIG. 20A) patient with del (17p) and Tp53 mutation, (FIG. 20B) patient with wild type p53 and sensitive to F-Ara-A and (FIG. 20C) normal lymphocytes from healthy donor were incubated with FD-895, PLAD and F-Ara-A (0, 10, 100, 1000 10,000 nM) for 48 hours.
FIG. 21: FD-895 and PLAD induce apoptosis in CLL cells not ONLY independently of Tp53 but also independently of SF3B1 mutational status: Primary leukemia B cells from CLL patient with SF3B1 wild, SF3B1 mutation, 17p DEL and normal B and T lymphocytes from healthy donor were incubated with FD-895 and PLAD with 100 nM for 48 hours. After incubation, the samples were harvested and % SIA was measured by flow cytometry as described above. […] Each dots represents number of CLL patient sample and normal B or T cells.
Normal B cells were purified from buffy coats of healthy volunteers, obtained from San Diego blood bank. Positive isolation with Dynabeads® CD19 pan B and DETACHaBEAD CD19 (Invitrogen Life Technologies, USA) were used to achieve more than 95% purity by flow cytometry analysis.
(§1) Apoptotic and viable cells were discriminated via flow cytometry of cells stained with 3,3′ dihexyloxacarbocyanine iodide (DiOC6) (Molecular Probes, Eugene, Oreg., USA) and propidium iodine (Sigma, St Louis, Mo., USA), as described.^3 Using this method viable cells exclude PI and stain brightly positive for DiOC6.

JURKAT = assay: Flow cytometry cell viability/% SIA in leukemia cell line; type: cell-based, human; details: 0-10,000 nM, 48 hours
Protocol: (§2) FIG. 22: Activity of FD-895, PLAD and F-Ara-A in different human leukemia cell lines: Different leukemia cell lines including MEC1, RAJI and JURKAT were incubated with FD-895, PLAD and F-Ara-A (0, 10, 100, 1000, 10,000 nM) for 48 hours. The samples were harvested and cell viability was measured by flow cytometry using propidium iodine (PI) exclusion and mitochondrial membrane potential changes using DiOC6. This experiments was performed 2 times independently.
(§3) The leukemia cell lines, MEC1, RAJI and JURKAT were maintained in CLL B cells were maintained in RPMI 1640 medium supplemented with 10% FBS, 2 mM L-glutamine, and 100 U/mL of penicillin and 100 μg/mL of streptomycin at 37° C. in an atmosphere of 5% CO2.
as §1
(§4) We further examined the activity of FD-895, PLAD and F-Ara-A in different leukemia cell lines like MEC1 (B chronic lymphocytic leukemia cell line), RAJI (B lymphocyte cell line), JURKAT (T lymphocyte cell line) as to know whether these compounds induce apoptosis or not. We incubated cells with FD-895, PLAD and F-Ara-A with 0, 10, 100, 1000 or 10,000 nM for 48 hours and measured the % SIA by using flow cytometry.

MEC1 = assay: as above; type: cell-based, human; details: MEC1, 0-10,000 nM, 48 hours
Protocol: as §2, §3, §1, §4

RAJI = assay: as above; type: cell-based, human; details: 0-10,000 nM, 48 hours
Protocol: as §2, §3, §1, §4

DNAJB1 = assay: Quantitative RT-PCR of unspliced mRNA in CLL cells; type: cell-based, human; details: for unspliced mRNA of DNAJB1 over time: CLL cells, FD-895, PLAD 100 nM, F-Ara-A 10 μM, 15 min, 1 and 4 hours; for unspliced mRNA of DNAJB1: CLL, 10 nM, 4 hours
Protocol: FIG. 24: Time-dependent increase of unspliced mRNA by FD-895 and PLAD in CLL: CLL cells were treated with 100 nM of FD-895 and PLAD and 10 μM of F-Ara-A for 15 min, 1 and 4 hours. Quantitative RT-PCR using primers specific for each intron quantified unspliced mRNA for DNAJB1. GAPDH was used for normalization. […] Error bars indicate S.D.
Quantitative RT-PCR using primers specific for each intron quantified unspliced mRNA for DNAJB1 (FIG. 25A) and RIOK3 (FIG. 25B). GAPDH was used for normalization. […] Error bars indicate S.D.
CLL cells were treated with 100 nM of FD-895 and PLAD and 10 μM of F-Ara-A for 15 minutes, 1 and 4 h. Normal B and CLL cells were treated with 10, 100, and 1000 nM of FD-895 and PLAD and 10 μM of F-Ara-A for 4 h.
Extraction of total RNA and cDNA synthesis were performed as described earlier. Unspliced mRNA was quantified using a 7900HT fast Real Time PCR System (Applied Biosystems). The amounts of unspliced mRNA of DNAJB1, and RIOK3 were determined by SYBR green (Power SYBR Green PCR Master Mix, Applied Biosystems) real-time quantitative RT-PCR using specific primers designed for the intron of each gene (see additional information section at the end).
PCR using 0.2 μM of each primer was performed on 20 ng of the obtained cDNA. PCR conditions were 50° C. for 2 min; 95° C. for 10 min; 35 cycles of 94° C. for 20 s, 55° C. for 20 s, followed by 72° C. for 30 s. The mRNA levels were calculated using 2^−ΔΔCT method.^4 GAPDH was used as a control for normalization.

[2] = Hydrolysis, NMR monitoring; type: physicochemical; details: neutral conditions; 10 mM in D2O/DMSO-d6 (10:1) at 37° C.
Protocol: FIG. 18A-18B: Hydrolysis of FD-895 (1a). FIG. 18A) NMR monitoring of the incubation of 10 mM 1a in D2O/DMSO-d6 (10:1) at 37° C. Hydrolysis occurs as marked by a shift of the C11 proton (large to small circles). Assignments of 3a, 3b and 3c were made based on coupling constant and gCOSY analyses. FIG. 18B) LdC-HRMS trace depicting the products at 143 h including acids 3a-3c (mass calcd. for C31H52O10Na=607.3453 m/z) along with unhydrolized 1a (mass calcd. for C31H50O9Na=589.3347 m/z). Exact masses [M+Na]^+ are provided for each peak.
Based on this observation, we turned our efforts to apply conventional SAR techniques to identify analogs with improved stability.

[3] = B cells from healthy donors, 0-10,000 nM
[4] = normal B cells from healthy donors, 100 nM

Compound | IC50 (HCT-116 cell line; HCT-116 cell line, MTT) | IC50 (HCT-116 cell line; HCT-116 cell line, MTT, listed as 1RR) | IC50 (HCT-116 cell line; background statement, cell line not given) | apoptosis (% SIA) [1, 3] | apoptosis (% SIA) [1, 4] | cell death (% SIA) (JURKAT) | cell death (% SIA) (MEC1) | cell death (% SIA) (RAJI) | unspliced mRNA of DNAJB1 over time (DNAJB1) | unspliced mRNA of DNAJB1 (DNAJB1) | hydrolysis [2]
CCC(OC)C(C)C1OC1C(O)C(C)/C=C/C=C(\C)C1OC(=O)CC(O)CCC(C)(O)C(OC(C)=O)/C=C/C1C (stereo not drawn) [FD-895] | 23.5 ± 0.2 nM | 24.2 ± 0.9 nM | 24.2 ± 0.9 nM | did not induce significant apoptosis | did not induce significant cell death; also recorded: did not show significant apoptosis | high significant cell death | did not show significant apoptosis | high significant cell death | gradual increase in unspliced mRNA | clear increase in unspliced mRNA | undergoes hydrolysis under neutral conditions
Pladienolide B | – | – | – | did not induce significant apoptosis | did not induce significant cell death; also recorded: did not show significant apoptosis | high significant cell death | did not show significant apoptosis | high significant cell death | gradual increase in unspliced mRNA | clear increase in unspliced mRNA | –

Source: patent publication US9604973B2, “Anti-cancer polyketide compounds” (priority 2012, dated 2017)
